The subject of the assay is adiponectin promoter. The experiment in a line: cells. Type of assay: cell-based, human. To be noted: for concentration at which the greatest transactivation was achieved: dose-response curve of commercial activator on the target promoter. From the text: The following protocol has been followed for the purpose of analyzing the potential therapeutic activity against obesity, type 2 diabetes mellitus and atherosclerosis (ODA metabolic diseases) of the compounds 1-4: • generating cell lines which have stably integrated human promoters of key genes in the development of ODA diseases; • amplifying the human promoter sequence of the target genes starting from commercial human genomic DNA; • cloning the promoter into a suitable vector which allows knowing the transcriptional activity of the promoter sequence, using the luciferase gene as a reporter gene; • generating stable cell lines for each of the promoters cloned into the reporter vectors; • carrying out the screening test with the compounds of the invention on the stable cell lines; • suitably validating the effect obtained with a certain compound which can modify the transcriptional activity of the promoter.
The selected cell line is C2C12, corresponding to myoblasts from mouse muscle tissue.
The luciferase activity is measured according to the following protocol: • a) 50000 and 1200000 cells/well (and in duplicate) are seeded in a P24 plate. • b) After approximately 24 hours, the medium is removed from the cells and each well is washed with PBS 1x (because DMEM interferes in the measurement of the activity of the reporter gene) • c) 100 µl of luciferase developing reagent are added in each cell (Bright-GloTM Luciferase Assay system- Promega). This reagent carries the reporter gene substrate and luminescence is generated as the product of the enzymatic reaction. The cells which have acquired the reporter gene, and therefore the target promoter, will be luminescent upon being in the presence of said substrate. To record the measurement of luciferase activity, the plate is shaken for 30 seconds right after adding the developing reagent and after 2 minutes, the volume is collected and transferred to a 96-well plate (P96), which can be read in an illuminometer. • d) The suitable luminescence program is selected, such that the reading lasts 5 seconds per well, and the arbitrary luminescence units are recorded for each obtained clone or, in other words, for each stable cell line.
The reaction substrate is photosensitive, therefore it is important to keep the plate in darkness from the time the reagent is added until the luciferase activity is recorded or read in each experiment. Carrying out the screening test: The clones used in the screening are: C2C12 Adipo (adiponectin promoter), C2C12 UCP3 (UCP3 promoter), C2C12 AdR1 (adiponectin receptor 1 promoter) and C2C12 Nmu (neuromedin promoter).
Before any screening experiment, the suitable number of cells for carrying out such experiments must first be provided. To that end, 2 T75 are usually seeded (with approximately 1x10^6 cells in each bottle), such that after four days, the cells have reached confluence and are ready for the screening protocol detailed below to be carried out. • 1. Day 1: 30000 cells per well are seeded in white P96 plates; these plates allow amplifying the luminescence signal and improving the reading. The cells are grown in 100 µl of hygromycin-free medium. • 2. Day 2: 24 hours after the seeding, the cells are stimulated with compounds 1-4. Compounds 1-4 are assayed in duplicate at 1, 5 and 10 µg/ml concentrations, by means of the screening method shown in the following diagram: [formula] ? In the indicated positions, the baseline transcriptional activity of the promoters to be studied is recorded in the presence of the medium in which compounds 1-4 (vehicle) are dissolved. ? In the indicated positions, the transcriptional activity of the promoters to be studied is recorded in the presence of a known commercial activator of the target promoter. […]

[1] abbreviates: Mus musculus, C2C12, 48 h, read-out: activation ratio.

The structures appear in SMILES notation.

Regarding `COC(=O)c1ccnc(NCC=C(C)CCC=C(C)C)c1` [Compound 1, 2-(3,7-dimethyl-octa-2,6-dienylamino)-isonicotinic acid methyl ester], under setting [1], the fold induction at 0.5 µM is 1.67, the fold induction at 1 µM was determined as 2.02, the fold induction at 5 µM is 3.33 and the fold induction at 10 µM amounted to 4.07. Also, under setting [1], the fold induction at 25 µM stood at 4.05, the fold induction at 50 µM was determined as 3.92, the fold induction at 100 µM came to 3.06 and the fold induction at 200 µM is 2.57.

For `CC(C)=CCNc1cccc(C(=O)O)c1` [Compound 2, 3-(3-methyl-but-2-enylamino)-benzoic acid], under setting [1], the fold induction at 0.01 µM stood at 1.05, the fold induction at 1 µM was determined as 1.69, the fold induction at 5 µM came to 2.78 and the fold induction at 15 µM turned out to be 3.43. Further, under setting [1], the fold induction at 25 µM was determined as 3.57, the fold induction at 50 µM worked out at 3.66, the fold induction at 200 µM was 3.04 and the fold induction at 400 µM turned out to be 1.81.

Turning to `COC(=O)c1cccc(NCC=C(C)C)c1` [Compound 3, 3-(3-methyl-but-2-enylamino)-benzoic acid methyl ester], under setting [1], the fold induction at 0.5 µM came to 1.07, the fold induction at 1 µM was found to be 1.26, the fold induction at 5 µM came out at 1.98 and the fold induction at 10 µM was determined as 1.85. For the same compound, under setting [1], the fold induction at 25 µM amounted to 2.46, the fold induction at 50 µM amounted to 2.61, the fold induction at 100 µM was 2.34 and the fold induction at 200 µM amounted to 1.92.

With `COC(=O)c1cccc(NCC=C(C)CCC=C(C)C)c1` [Compound 4, 3-(3,7-dimethyl-octa-2,6-dienylamino)-benzoic acid methyl ester], under setting [1], the fold induction at 0.5 µM was 2.32, the fold induction at 1 µM worked out at 2.59, the fold induction at 5 µM turned out to be 3.53 and the fold induction at 10 µM came out at 3.71. Besides, under setting [1], the fold induction at 25 µM was 3.47, the fold induction at 50 µM turned out to be 3.28, the fold induction at 100 µM was 2.53 and the fold induction at 200 µM turned out to be 1.78.

As for `O=c1c(-c2ccc(O)cc2)coc2cc(O)ccc12` [Daidzein, daidzein, reference compound], the “concentration at which the greatest transactivation was achieved” value (“concentration” below) is reported as 20 µM. Under setting [1], the fold induction at 1 µM worked out at 1.68, the fold induction at 5 µM was determined as 3.03, the fold induction at 10 µM was 3.76 and the fold induction at 20 µM was determined as 4.04. In addition, under setting [1], the fold induction at 50 µM amounted to 4.05 and the fold induction at 100 µM was 3.71.

For `O=c1c(-c2ccc(O)cc2)coc2cc(O)cc(O)c12` [Genistein, genistein, reference compound], the “concentration” value is 20 µM. Under setting [1], the fold induction at 1 µM worked out at 1.47, the fold induction at 5 µM was found to be 2.25, the fold induction at 10 µM came to 3.59 and the fold induction at 20 µM turned out to be 3.05. Moreover, under setting [1], the fold induction at 50 µM was 1.97, the fold induction at 100 µM worked out at 1.75 and the fold induction at 200 µM stood at 1.59.

As to `CN(CCOc1ccc(CC2SC(=O)NC2=O)cc1)c1ccccn1` (stereo not drawn) [Rosiglitazone, reference compound], the “concentration” value was 20 µM.

The values are drawn from EP2213286A1, “N-(PHENYL OR PYRIDYL)PRENYLAMINE DERIVATIVES FOR THE TREATMENT OF OBESITY, DIABETES AND CARDIOVASCULAR DISEASES” (Zeltia, S.A., priority 2009, dated 2010).
